This passage reports IC50 results from paper PMC4109680, “Identification and Preclinical Pharmacology of the γ-Secretase Modulator BMS-869780” (International Journal of Alzheimer's Disease, 2014).

The test system of this assay is Aβ1-42 (MEF PS1wt). Nature of the assay: Aβ1-42 ELISA in MEF dKO cultures cotransfected with APP-CTF and human presenilin-1 wild type. Format: cell-based. The conditions noted are these: wild type human presenilin-1. The procedure:
H4-APPsw cell cultures were maintained on Dulbecco's modified Eagle's medium (DMEM) supplemented with L-glutamine (2 mM), fetal bovine serum (10%), and G418 (100 μg/mL). […] Aβ1-42 and Aβ1-40 assays, and Notch inhibition assays, were carried out as described previously. Mouse embryonic fibroblasts deficient in PS1 and PS2 (MEF dKO) were passaged twice per week in DMEM/F-12 medium, consisting of a 1 : 1 mixture of DMEM and F-12 nutrient mixture supplemented with 10% fetal bovine serum, penicillin, and streptomycin. For expression of human presenilin-1 in MEF dKO cells, the full length human presenilin-1 cDNA open reading frame was cloned between the BamHI and XhoI sites of the vector pcDNA5/FRT (Invitrogen), placing presenilin-1 expression under the control of the CMV promoter. […]
IC50 determinations for Aβ1-42 and Aβ1-40 in H4-APPsw cultures in 384-well format were determined using homogeneous time-resolved fluorescence immunoassays as previously described. […] In other experiments using H4-APPsw cultures, Aβ was quantified by ELISA; for Aβ1-42 the combination of monoclonal antibodies was 26D6 and 565-HRP; for Aβ1-40 it was TSD and 26D6-HRP, and for Aβ1-x it was 4G8 and 26D6-HRP. […] For Aβ in transiently transfected PS1/PS2 dKO fibroblasts, Aβ1-42 was quantified using an ELISA kit (WACO), and Aβ1-40 was quantified by ELISA as described above for H4-APPsw cultures. […]
A general note: In an ELISA, binding on a coated surface is turned into a signal by an enzyme label.

The term IC50 denotes the concentration that gives 50% inhibition. For `COc1cc(Nc2nc3n(n2)CCCC[C@H]3c2ccc(F)cc2)ccc1-n1cnc(Cl)c1` [BMS-869780], the half-maximal inhibitory concentration (IC50) worked out at 7.7 nM.
